This passage reports ED50 results from patent US11584765B2 (priority 2017, dated 2023).

Bounds are passed on as bounds.

This assay relates to C57BL/6 mice. Briefly: animal or person. The settings on record: Mus musculus, sc, 0.5 h, s.c. administration, 30 min, 55° C. water, read-out: ED50 (mg/kg) at 30 min on C57BL/6 mice in Warm-water Tail-flick Test. Format: in vivo.
For the molecule `CCOCC1(CCc2ccccn2)CCN(C(C)c2ccc(C)nc2)C1` (stereo not drawn) [Compound 349, 5-(1-(3-(ethoxymethyl)-3-(2-(pyridin-2-yl)ethyl)pyrrolidin-1-yl)ethyl)-2-methylpyridine], the ED50 was under 10 mg/kg. In the case of `CCOCC1(CCc2cccnc2)CCN(C(C)c2ccc(C)nc2)C1` (stereo not drawn) [Compound 350, 5-(1-(3-(ethoxymethyl)-3-(2-(pyridin-3-yl)ethyl)pyrrolidin-1-yl)ethyl)-2-methylpyridine], the ED50 was under 10 mg/kg. For `CCOCC1(CCc2ncccn2)CCN(C(C)c2ccc(C)nc2)C1` (stereo not drawn) [Compound 351, 2-(2-(3-(ethoxymethyl)-1-(1-(6-methylpyridin-3-yl)ethyl)pyrrolidin-3-yl)ethyl)pyrimidine], the ED50 was under 10 mg/kg. The result for `CCOC[C@]1(CCc2ccsc2)CCN(C(C)(C)c2ccc(C)nc2)C1` [Compound 352, (R)-5-(2-(3-(ethoxymethyl)-3-(2-(thiophen-3-yl)ethyl)pyrrolidin-1-yl)propan-2-yl)-2-methylpyridine] reads under 10 mg/kg; that for `CCOC[C@@]1(CCc2cccs2)CCN(C(C)(C)c2ccc(C)nc2)C1` [Compound 353, (S)-5-(2-(3-(ethoxymethyl)-3-(2-(thiophen-2-yl)ethyl)pyrrolidin-1-yl)propan-2-yl)-2-methylpyridine], under 10 mg/kg.

In the case of `CCOC[C@@]1(CCc2csc(C)c2)CCN(C(C)(C)c2ccc(C)nc2)C1` [Compound 354, (S)-5-(2-(3-(ethoxymethyl)-3-(2-(5-methylthiophen-3-yl)ethyl)pyrrolidin-1-yl)propan-2-yl)-2-methylpyridine], the ED50 is under 10 mg/kg. The figure for `CCOC[C@@]1(CCc2cc(C)cs2)CCN(C(C)(C)c2ccc(C)nc2)C1` [Compound 355, (S)-5-(2-(3-(ethoxymethyl)-3-(2-(4-methylthiophen-2-yl)ethyl)pyrrolidin-1-yl)propan-2-yl)-2-methylpyridine] is under 10 mg/kg; for `CCOC[C@@]1(CCc2ccsc2)CCN(C(C)(C)c2ccc(C)nc2)C1` [Compound 356, (S)-5-(2-(3-(ethoxymethyl)-3-(2-(thiophen-3-yl)ethyl)pyrrolidin-1-yl)propan-2-yl)-2-methylpyridine] it is under 10 mg/kg; for `CCOCC1(CCc2cnccn2)CCN(C(C)c2ccc(C)nc2)C1.Cl` (stereo not drawn) [Compound 357, 2-(2-(3-(ethoxymethyl)-1-(1-(6-methylpyridin-3-yl)ethyl)pyrrolidin-3-yl)ethyl)pyrazine HCl] it is under 10 mg/kg.

On to `CCOCC1(CCc2nccn2C)CCN(C(C)c2ccc(C)nc2)C1` (stereo not drawn) [Compound 358, 5-(1-(3-(ethoxymethyl)-3-(2-(1-methyl-1H-imidazol-2-yl)ethyl)pyrrolidin-1-yl)ethyl)-2-methylpyridine], for which the ED50 is over 10 mg/kg.

With `CCOC[C@@]1(CCc2ccccn2)CCN(C(C)(C)c2ccc(C)nc2)C1` [Compound 359, (S)-5-(2-(3-(ethoxymethyl)-3-(2-(pyridin-2-yl)ethyl)pyrrolidin-1-yl)propan-2-yl)-2-methylpyridine], the ED50 was under 10 mg/kg.

In the case of `CCOC[C@@]1(CCc2ncccn2)CCN(C(C)(C)c2ccc(C)nc2)C1` [Compound 360, (S)-2-(2-(3-(ethoxymethyl)-1-(2-(6-methylpyridin-3-yl)propan-2-yl)pyrrolidin-3-yl)ethyl)pyrimidine], the ED50 is under 10 mg/kg. The result for `CCOC[C@@]1(CCc2ccnc(OC)c2)CCN(C(C)(C)c2ccc(C)nc2)C1.Cl` [Compound 361, (S)-4-(2-(3-(ethoxymethyl)-1-(2-(6-methylpyridin-3-yl)propan-2-yl)pyrrolidin-3-yl)ethyl)-2-methoxypyridine HCl] reads under 10 mg/kg. The figure for `CCOC[C@@]1(CCc2cc3c(s2)CCC3)CCN(C(C)(C)c2ccc(C)nc2)C1.Cl` [Compound 362, (S)-5-(2-(3-(2-(5,6-dihydro-4H-cyclopenta[b]thiophen-2-yl)ethyl)-3-(ethoxy-methyl)pyrrolidin-1-yl)propan-2-yl)-2-methylpyridine HCl] is under 10 mg/kg; for `CCOC[C@@]1(CCc2nccs2)CCN(C(C)(C)c2ccc(C)nc2)C1` [Compound 363, (S)-2-(2-(3-(ethoxymethyl)-1-(2-(6-methylpyridin-3-yl)propan-2-yl)pyrrolidin-3-yl)ethyl)thiazole] it is under 10 mg/kg.

Regarding `CCOC[C@@]1(CCc2ccc(F)cc2)CCN(C(C)(C)c2ccc(C)nc2)C1` [Compound 364, (S)-5-(2-(3-(ethoxymethyl)-3-(4-fluoro-phenethyl)pyrrolidin-1-yl)propan-2-yl)-2-methylpyridine], the ED50 was under 10 mg/kg. The result for `CCOC[C@@]1(CCc2ccc(F)s2)CCN(C(C)(C)c2ccc(C)nc2)C1` [Compound 365, (S)-5-(2-(3-(ethoxymethyl)-3-(2-(5-fluorothiophen-2-yl)ethyl)pyrrolidin-1-yl)propan-2-yl)-2-methylpyridine] reads under 10 mg/kg; that for `CCOC[C@@]1(CCc2ccccc2)CCN(C(C)(C)c2ccc(C)nc2)C1` [Compound 366, (S)-5-(2-(3-(ethoxymethyl)-3-phenethylpyrrolidin-1-yl)propan-2-yl)-2-methylpyridine], under 10 mg/kg. The figure for `CCOC[C@@]1(CCc2cc[nH]c(=O)c2)CCN(C(C)(C)c2ccc(C)nc2)C1.Cl` [Compound 367, (S)-4-(2-(3-(ethoxymethyl)-1-(2-(6-methylpyridin-3-yl)propan-2-yl)pyrrolidin-3-yl)ethyl)pyridin-2(1H)-one HCl] is under 10 mg/kg. For `Cc1ccc(C(C)(C)N2CC[C@@](CO)(CCc3cc[nH]c(=O)c3)C2)cn1.Cl` [Compound 368, (S)-4-(2-(3-(hydroxymethyl)-1-(2-(6-methylpyridin-3-yl)propan-2-yl)pyrrolidin-3-yl)ethyl)pyridin-2(1H)-one HCl], the ED50 is under 10 mg/kg.

Regarding `COc1cc(CC[C@]2(CO)CCN(C(C)(C)c3ccc(C)nc3)C2)ccn1.Cl` [Compound 369, (S)-(3-(2-(2-methoxypyridin-4-yl)ethyl)-1-(2-(6-methylpyridin-3-yl)propan-2-yl)pyrrolidin-3-yl)methanol HCl], the ED50 is under 10 mg/kg.

Turning to `CCOC[C@@]1(CCc2ccc(OC)nc2)CCN(C(C)(C)c2ccc(C)nc2)C1.Cl` [Compound 370, (S)-5-(2-(3-(ethoxymethyl)-1-(2-(6-methylpyridin-3-yl)propan-2-yl)pyrrolidin-3-yl)ethyl)-2-methoxypyridine HCl], the ED50 was under 10 mg/kg. As to `CCOC[C@@]1(CCc2cccnc2)CCN(C(C)(C)c2ccc(C)nc2)C1` [Compound 371, (S)-5-(2-(3-(ethoxymethyl)-3-(2-(pyridin-3-yl)ethyl)pyrrolidin-1-yl)propan-2-yl)-2-methylpyridine], the ED50 is under 10 mg/kg.

As for `CCOC[C@@]1(CCc2ccc(F)cn2)CCN(C(C)(C)c2ccc(C)nc2)C1` [Compound 372, (S)-2-(2-(3-(ethoxymethyl)-1-(2-(6-methylpyridin-3-yl)propan-2-yl)pyrrolidin-3-yl)ethyl)-5-fluoropyridine], the ED50 is under 10 mg/kg. The result for `CCOC[C@@]1(CCc2ccc(C)s2)CCN(C(C)(C)c2ccc(C)nc2)C1` [Compound 373, (S)-5-(2-(3-(ethoxymethyl)-3-(2-(5-methylthiophen-2-yl)ethyl)pyrrolidin-1-yl)propan-2-yl)-2-methylpyridine] reads under 10 mg/kg; that for `CCOCC1(CCc2cc(C)sc2C)CCN(C2(c3ccc(C)nc3)CC2)C1` (stereo not drawn) [Compound 374, 5-(1-(3-(2-(2,5-dimethylthiophen-3-yl)ethyl)-3-(ethoxy-methyl)pyrrolidin-1-yl)cyclopropyl)-2-methylpyridine], under 10 mg/kg; that for `CCOC[C@@]1(CCc2nccc(=O)[nH]2)CCN(C(C)(C)c2ccc(C)nc2)C1` [Compound 375, (S)-2-(2-(3-(ethoxymethyl)-1-(2-(6-methylpyridin-3-yl)propan-2-yl)pyrrolidin-3-yl)ethyl)pyrimidin-4(3H)-one], under 10 mg/kg. Consider `CCOC[C@@]1(CCc2ccc(=O)[nH]c2)CCN(C(C)(C)c2ccc(C)nc2)C1.Cl` [Compound 376], for which the ED50 was under 10 mg/kg. On to `CCOC[C@@]1(CCc2nccc(OC)n2)CCN(C(C)(C)c2ccc(C)nc2)C1.Cl` [Compound 377, (S)-2-(2-(3-(ethoxymethyl)-1-(2-(6-methylpyridin-3-yl)propan-2-yl)pyrrolidin-3-yl)ethyl)-4-methoxypyrimidine HCl], for which the ED50 was under 10 mg/kg. As to `CCOC[C@@]1(CCc2cccs2)CCN(C(C)c2cnn(C)c2C)C1` (stereo partly drawn) [Compound 378, 4-(1-((S)-3-(ethoxymethyl)-3-(2-(thiophen-2-yl)ethyl)pyrrolidin-1-yl)ethyl)-1,5-dimethyl-1H-pyrazole], the ED50 was under 10 mg/kg. Consider `CCOC[C@@]1(CCc2cccs2)CCN(C2(c3ccc(C)nc3)CC2)C1` [Compound 379, (S)-5-(1-(3-(ethoxymethyl)-3-(2-(thiophen-2-yl)ethyl)pyrrolidin-1-yl)cyclopropyl)-2-methylpyridine], for which the ED50 is under 10 mg/kg. Turning to `CCOC[C@@]1(CCc2ccc(F)cn2)CCN(C(=O)c2ccc(C)nc2)C1` [Compound 380, (S)-(3-(ethoxymethyl)-3-(2-(5-fluoropyridin-2-yl)ethyl)pyrrolidin-1-yl)(6-methylpyridin-3-yl)methanone], the ED50 was over 10 mg/kg. The figure for `COC[C@@]1(CCc2csc(C)c2)CCN(C(=O)c2ccc(C)nc2)C1` [Compound 381, (S)-(3-(methoxymethyl)-3-(2-(5-methylthiophen-3-yl)ethyl)pyrrolidin-1-yl)(6-methylpyridin-3-yl)methanone] is over 10 mg/kg. The result for `CCOC[C@@]1(CCc2nncn2C)CCN(C(=O)c2ccc(C)nc2)C1` [Compound 382] reads over 10 mg/kg. The result for `COC[C@@]1(CCc2csc(C)c2)CCN(C(C)(C)c2ccc(C)nc2)C1` [Compound 383, (S)-5-(2-(3-(methoxymethyl)-3-(2-(5-methylthiophen-3-yl)ethyl)pyrrolidin-1-yl)propan-2-yl)-2-methylpyridine] reads under 10 mg/kg; that for `CCOC[C@@]1(CCc2ccsc2)CCN(Cc2cnn(C)c2)C1.Cl` [Compound 384, (S)-4-((3-(ethoxymethyl)-3-(2-(thiophen-3-yl)ethyl)pyrrolidin-1-yl)methyl)-1-methyl-1H-pyrazole HCl], under 10 mg/kg.
